IC50 and Activity data for 35 compounds are collected here from ChEMBL document CHEMBL3046653, “Synthesis and evaluation of DPPH and anti-inflammatory activities of 2,6-bisbenzylidenecyclohexanone and pyrazoline derivatives” (Med Chem Res, 2012).

The nature of data set [1]: Antioxidant activity assessed as DPPH scavenging activity after 30 min by spectrophotometry. It is filed as functional. (DPPH is a stable violet radical that fades when it is reduced.)
Data set [2] concerns RAW264.7. Kind of data set: Anti-inflammatory activity in Mus musculus (mouse) RAW264.7 cells assessed as inhibition of IFN-gamma/LPS-induced nitric oxide production after 17 to 20 hr by Griess assay. The data set is classed as functional, cell-based. On the technique in general: Nitrite, measured by Griess reagent, commonly stands in for NO production.
For data set [3], the system named is RAW264.7. The data set is described as follows: Cytotoxicity against Mus musculus (mouse) RAW264.7 cells at >50 uM by MTT assay. The data set is classed as cell-based. For orientation: Tetrazolium assays rely on reduction of a dye to a coloured formazan, in cell work by metabolically active cells.
Data set [4] concerns RAW264.7. Kind of data set: Cytotoxicity against Mus musculus (mouse) RAW264.7 cells at IC50 for NO production by MTT assay. The data set is classed as cell-based.
Data set [5] concerns RAW264.7. The data set is described as follows: Cytotoxicity against Mus musculus (mouse) RAW264.7 cells at 25 uM by MTT assay. The data set is classed as cell-based. As to conditions: raw264.7, 25 µM.

Bounds are passed on as bounds.

As a reminder, the IC50 is the point on the concentration scale where inhibition reaches its midpoint. Consider `O=C1/C(=C/c2ccc(O)c(O)c2)CCC/C1=C\c1ccc(O)c(O)c1`, for which the results for the IC50 (in data set [1]; in the data set with RAW264.7 [2]) were 13.3 µM and 9.43 µM, respectively. With `COc1cc(/C=C2\CC/C(=C\c3ccc(OC(C)=O)c(OC)c3)C2=O)ccc1OC(C)=O`, the IC50 was no less than 100 µM in data set [1] and no less than 50 µM in the data set with RAW264.7 [2]. Turning to `CC(=O)Oc1ccc(/C=C2\CC/C(=C\c3ccc(OC(C)=O)c(OC(C)=O)c3)C2=O)cc1OC(C)=O`, the figures for the half-maximal inhibitory concentration (IC50) (in data set [1]; in the data set with RAW264.7 [2]) were no less than 100 µM and no less than 50 µM, respectively. Turning to `COc1cc(/C=C2\CCC/C(=C\c3ccc(OC(C)=O)c(OC)c3)C2=O)ccc1OC(C)=O`, the IC50 in data set [1] was no less than 100 µM; in the data set with RAW264.7 [2] it was 13.3 µM.

Regarding `CCC(=O)Oc1ccc(/C=C2\CCC/C(=C\c3ccc(OC(=O)CC)c(OC)c3)C2=O)cc1OC`, the IC50 was no less than 100 µM in data set [1] and 8.02 µM in the data set on RAW264.7 [2]. The corresponding values for `CC(=O)Oc1ccc(/C=C2\CCC/C(=C\c3ccc(OC(C)=O)c(OC(C)=O)c3)C2=O)cc1OC(C)=O` are no less than 100 µM and 6.84 µM.

In the case of `COc1cc(/C=C2\CCCC3C2=NNC3c2ccc(O)c(OC)c2)ccc1O` (stereo not drawn), the figures for the Activity entry in the data set on RAW264.7 [3] and with RAW264.7 [4] were “Toxic” and “Non-toxic”, respectively. Also, the IC50 with RAW264.7 [2] amounted to 12.2 µM. `Oc1ccc(/C=C2\CCCC3C2=NNC3c2ccc(O)cc2)cc1` (stereo not drawn): the IC50 in the data set on RAW264.7 [2] turned out to be 26.9 µM.

As to `COc1ccc(/C=C2\CCCC3C2=NNC3c2ccc(OC)c(OC)c2)cc1OC` (stereo not drawn), the 50% inhibitory concentration (IC50) with RAW264.7 [2] was determined as 38.7 µM.

Take `O=[N+]([O-])c1ccc(/C=C2\CCCC3C2=NNC3c2ccc([N+](=O)[O-])cc2)cc1` (stereo not drawn): the IC50 in the data set on RAW264.7 [2] was no less than 50 µM. For the compound `Fc1ccc(/C=C2\CCCC3C2=NNC3c2ccc(F)cc2)cc1` (stereo not drawn), the IC50 with RAW264.7 [2] was no less than 50 µM. With `COc1cc(/C=C2\CCCC3C2=NN(C(C)=O)C3c2ccc(OC(C)=O)c(OC)c2)ccc1OC(C)=O` (stereo not drawn), in the data set on RAW264.7 [2], the IC50 was no less than 50 µM. Consider `COc1ccc(/C=C2\CCCC3C2=NN(C(C)=O)C3c2ccc(OC)c(OC)c2)cc1OC` (stereo not drawn), for which, in the data set on RAW264.7 [2], the IC50 was no less than 50 µM. As to `CC(=O)N1N=C2/C(=C/c3ccc([N+](=O)[O-])cc3)CCCC2C1c1ccc([N+](=O)[O-])cc1` (stereo not drawn), the IC50 with RAW264.7 [2] was no less than 50 µM. `CC(=O)N1N=C2/C(=C/c3ccc(F)cc3)CCCC2C1c1ccc(F)cc1` (stereo not drawn): the IC50 in the data set with RAW264.7 [2] was no less than 50 µM.

As to `COc1cc(/C=C2\CCCC3C2=NN(C(=O)c2ccccc2)C3c2ccc(O)c(OC)c2)ccc1O` (stereo not drawn), the IC50 in the data set on RAW264.7 [2] is 47.1 µM. Take `COc1ccc(/C=C2\CCCC3C2=NN(C(=O)c2ccccc2)C3c2ccc(OC)c(OC)c2)cc1OC` (stereo not drawn): in the data set on RAW264.7 [2], the IC50 is 25.1 µM. As for `O=C(c1ccccc1)N1N=C2/C(=C/c3ccc([N+](=O)[O-])cc3)CCCC2C1c1ccc([N+](=O)[O-])cc1` (stereo not drawn), the IC50 in the data set on RAW264.7 [2] was no less than 50 µM. Turning to `O=C(c1ccccc1)N1N=C2/C(=C/c3ccc(F)cc3)CCCC2C1c1ccc(F)cc1` (stereo not drawn), the IC50 in the data set with RAW264.7 [2] is no less than 50 µM.

As for `O=C1/C(=C/c2cccc(O)c2)CC/C1=C\c1cccc(O)c1`, the IC50 in data set [1] was no less than 100 µM; in the data set with RAW264.7 [2], no less than 50 µM. On to `O=C1/C(=C/c2ccc(O)cc2O)CC/C1=C\c1ccc(O)cc1O`, for which the IC50 is 50.6 µM in data set [1] and no less than 50 µM in the data set with RAW264.7 [2]. For the compound `O=C1/C(=C/c2cccc(O)c2O)CC/C1=C\c1cccc(O)c1O`, the IC50 is 20.7 µM in data set [1] and 7.94 µM in the data set with RAW264.7 [2]. `O=C1/C(=C/c2cccc(O)c2)CCC/C1=C\c1cccc(O)c1`: the Activity entry in the data set with RAW264.7 [5] is listed as “Toxic”; with RAW264.7 [3], “Toxic”; in the data set with RAW264.7 [4], “Non-toxic”. The IC50 in data set [1] was no less than 100 µM; in the data set on RAW264.7 [2], 6.09 µM. On to `COc1cc(/C=C2\CC/C(=C\c3ccc(O)c(OC)c3)C2=O)ccc1O`, for which the figures for the Activity entry with RAW264.7 [3] and in the data set with RAW264.7 [4] were “Toxic” and “Non-toxic”, respectively. The results for the IC50 (in data set [1]; with RAW264.7 [2]) were 75 µM and 13.9 µM, respectively.

In the case of `O=C1/C(=C/c2ccc(O)c(O)c2)CC/C1=C\c1ccc(O)c(O)c1`, the IC50 stood at 14.8 µM in data set [1] and 20.5 µM in the data set with RAW264.7 [2].

For the compound `O=C1/C(=C/c2ccc(O)cc2)CC/C1=C\c1ccc(O)cc1`, the IC50 in data set [1] was no less than 100 µM; with RAW264.7 [2], no less than 50 µM. With `COc1ccc(/C=C2\CCC/C(=C\c3ccc(OC)c(OC)c3)C2=O)cc1OC`, the half-maximal inhibitory concentration (IC50) in data set [1] is no less than 100 µM; in the data set on RAW264.7 [2] it was 19.8 µM. Regarding `O=C1/C(=C/c2ccc([N+](=O)[O-])cc2)CCC/C1=C\c1ccc([N+](=O)[O-])cc1`, the IC50 in data set [1] was no less than 100 µM; in the data set on RAW264.7 [2], 29.4 µM. For the compound `O=C1/C(=C/c2ccc(F)cc2)CC/C1=C\c1ccc(F)cc1`, the IC50 was no less than 100 µM in data set [1] and no less than 50 µM in the data set on RAW264.7 [2].

For the compound `O=C1/C(=C/c2ccc(F)cc2)CCC/C1=C\c1ccc(F)cc1`, the values for the IC50 (in data set [1]; with RAW264.7 [2]) were no less than 100 µM and no less than 50 µM, respectively.

Consider `O=C1/C(=C/c2ccc(O)cc2)CCC/C1=C\c1ccc(O)cc1`, for which the IC50 is no less than 100 µM in data set [1] and 41.6 µM in the data set with RAW264.7 [2].

Regarding `COc1cc(/C=C/C(=O)CC(=O)/C=C/c2ccc(O)c(OC)c2)ccc1O` [CURCUMIN], in the data set with RAW264.7 [2], the IC50 turned out to be 21.6 µM. As for `COc1cc(/C=C2\CCC/C(=C\c3ccc(O)c(OC)c3)C2=O)ccc1O` [CYCLOVALONE], the Activity result is on record as “Toxic” with RAW264.7 [3] and “Non-toxic” in the data set on RAW264.7 [4]. Moreover, the IC50 in data set [1] was 51.9 µM; with RAW264.7 [2], 6.68 µM.

For `COC(=O)[C@@H](N)CCCNC(=N)N[N+](=O)[O-]` [L-NAME], in the data set with RAW264.7 [2], the IC50 came out at 26.2 µM.

On to `O=c1c(O)c(-c2ccc(O)c(O)c2)oc2cc(O)cc(O)c12` [QUERCETIN], for which the IC50 in data set [1] turned out to be 21.5 µM.
